ChEMBL document CHEMBL3864136, “A monocyclic neodysiherbaine analog: Synthesis and evaluation” (Bioorg Med Chem Lett, 2016)
pKi: −log10 of the molar value.

Assays:
[1] = target: Glutamate receptor ionotropic, kainate 2 (Homo sapiens, UniProt Q13002); assay: Displacement of [3H]kianic acid from recombinant GluK2 kainate receptor (unknown origin) expressed in HEK293 cell membranes measured after 1 hr
[2] = target: Glutamate receptor ionotropic, kainate 1 (Homo sapiens, UniProt P39086); assay: Displacement of [3H]kianic acid from recombinant GluK1 kainate receptor (unknown origin) expressed in HEK293 cell membranes measured after 1 hr
Sequence of Glutamate receptor ionotropic, kainate 1 (P39086 whole entry): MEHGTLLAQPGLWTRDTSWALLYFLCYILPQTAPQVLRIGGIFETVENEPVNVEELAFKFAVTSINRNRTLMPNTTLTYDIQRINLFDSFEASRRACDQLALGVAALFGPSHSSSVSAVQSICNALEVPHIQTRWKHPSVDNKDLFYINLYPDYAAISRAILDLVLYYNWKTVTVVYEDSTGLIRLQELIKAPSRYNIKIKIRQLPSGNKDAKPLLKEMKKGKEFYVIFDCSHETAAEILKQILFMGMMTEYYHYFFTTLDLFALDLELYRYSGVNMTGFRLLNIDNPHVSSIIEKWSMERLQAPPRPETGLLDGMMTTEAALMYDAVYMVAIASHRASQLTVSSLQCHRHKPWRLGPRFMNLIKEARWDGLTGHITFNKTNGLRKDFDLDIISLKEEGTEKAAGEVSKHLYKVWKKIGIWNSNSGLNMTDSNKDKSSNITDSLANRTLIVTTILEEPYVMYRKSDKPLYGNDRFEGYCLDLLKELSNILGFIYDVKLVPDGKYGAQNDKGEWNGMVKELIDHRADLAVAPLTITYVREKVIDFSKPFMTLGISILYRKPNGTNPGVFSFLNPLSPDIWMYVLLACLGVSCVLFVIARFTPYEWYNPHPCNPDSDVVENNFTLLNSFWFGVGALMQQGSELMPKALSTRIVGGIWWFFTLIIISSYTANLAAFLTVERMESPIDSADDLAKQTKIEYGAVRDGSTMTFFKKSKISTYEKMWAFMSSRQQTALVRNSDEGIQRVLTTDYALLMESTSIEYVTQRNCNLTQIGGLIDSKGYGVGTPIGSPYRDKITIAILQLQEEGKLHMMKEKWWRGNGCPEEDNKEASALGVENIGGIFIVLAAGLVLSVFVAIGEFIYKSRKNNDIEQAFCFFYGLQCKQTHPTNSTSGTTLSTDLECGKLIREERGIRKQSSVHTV

Sequence of Glutamate receptor ionotropic, kainate 2 (Q13002 whole entry): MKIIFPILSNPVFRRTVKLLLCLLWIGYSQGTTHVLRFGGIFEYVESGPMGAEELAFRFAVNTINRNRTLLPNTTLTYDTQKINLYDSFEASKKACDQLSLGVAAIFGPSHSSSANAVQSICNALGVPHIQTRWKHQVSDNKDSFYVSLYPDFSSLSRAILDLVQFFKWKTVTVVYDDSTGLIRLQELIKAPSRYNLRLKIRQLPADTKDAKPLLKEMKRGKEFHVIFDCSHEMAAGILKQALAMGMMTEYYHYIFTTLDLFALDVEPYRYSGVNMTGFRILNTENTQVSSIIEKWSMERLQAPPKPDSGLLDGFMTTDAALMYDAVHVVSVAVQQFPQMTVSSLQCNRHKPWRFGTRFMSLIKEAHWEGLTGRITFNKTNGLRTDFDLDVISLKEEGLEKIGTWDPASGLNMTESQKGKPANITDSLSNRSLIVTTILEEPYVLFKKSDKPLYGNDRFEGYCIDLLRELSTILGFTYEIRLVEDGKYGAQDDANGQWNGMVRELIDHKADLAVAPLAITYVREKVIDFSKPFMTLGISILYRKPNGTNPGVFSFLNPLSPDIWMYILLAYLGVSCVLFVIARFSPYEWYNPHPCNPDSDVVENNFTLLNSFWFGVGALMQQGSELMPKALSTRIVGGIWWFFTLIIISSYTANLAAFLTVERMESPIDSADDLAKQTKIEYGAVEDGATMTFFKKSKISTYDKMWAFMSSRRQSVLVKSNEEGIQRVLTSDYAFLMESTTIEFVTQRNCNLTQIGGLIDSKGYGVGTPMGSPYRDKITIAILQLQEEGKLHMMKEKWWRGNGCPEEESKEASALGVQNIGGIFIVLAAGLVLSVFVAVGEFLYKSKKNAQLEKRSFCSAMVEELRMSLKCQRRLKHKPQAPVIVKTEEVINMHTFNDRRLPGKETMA

CN[C@H]1[C@H]2O[C@@](C[C@H](N)C(=O)O)(C(=O)O)C[C@H]2OC[C@H]1O [DYSIHERBAINE]
pKi [1]: 8.92
pKi [2]: 9.13
